This is an account of results in patent US11465989B2, “Guanidine compounds and use thereof” (IMMUNOMET THERAPEUTICS INC., priority 2014, dated 2022).

Where a name gives a salt, the structure may show the parent alone. Read-outs that look alike come from different tables or passages of the source.

The subject of one assay is A549 cells. Nature of the assay: Inhibition of OCR (XF Analyzer). The assay is classed as cell-based. An excerpt:
The electron transfer complex in mitochondria is composed of 5 complexes. The complex I accept electrons from NADH produced from glycolysis and TCA cycle and the electrons move to complex […] and the electron is finally transferred to O2 and water molecule is generated. During the electron transfer, proton gradient is generated and the chemical gradient is a driving source to synthesize ATP at complex V. The mitochondrial inhibition of complex I indirectly assessed by measuring the oxygen consumption rate (OCR) at complex IV. […] The solution outside of cells becomes acidic (lower pH) as lactate is transported to outside of cells. OCR and Extracellular acidification rate (ECAR) are determined by XF Analyzer (Seahorse Biosciences).
A549 cells were purchased from American Type Tissue Culture Collection ([…]) and cultured in RPMI 1640 supplied with 10% fetal bovine serum (FBS) and antibiotic-antimycotic (Lifetech, CA). A549 cells were separated with 0.5% Trypsin-EDTA and 3,000 cells were plated on 1 mg/ml poly-D-lysine (Sigma, P6407) coated XF 96 well […]. A549 cells were allowed to adhere to the wells for 24 hours under the condition of temperature, 37° C. and 5% CO2 The sensor cartridge of XF Analyzer was soaked in 200 Ad of Calibrant solution (Seahorse, MA) in a clear 96-well plate at 37° C. for 24 hours. The compounds of the present invention were diluted with RPMI 1640 without FBS, transferred to A549 cells on XF 96 well plate, and incubated further for 23 hours at 37° C. and 5% CO2. After incubation, the compound solution was exchanged with pre-warmed and pH adjusted (pH7.4) XF assay media (Seahorse) supplied with 15 mM D-glucose (Sigma), 15 mM sodium pyruvate (Lifetechnologies, CA) and 4 mM L-glutamine (Lifetechnologies, CA). The compounds of present invention were prepared in XF Assay media and added to the assay plate. The assay plate was equilibrated in XF Analyzer for 1 hour, and the reading were started by sensor cartridge. The cytotoxicity assay was followed using Cyquant (Lifetechnologies, CA) in order to calibrate the inhibition with cytotoxicity of compounds. The concentrations of the compounds were tested at […] and IC50 value was obtained from the inhibited values. That is, from OCR inhibition values at each concentration of the compound, IC50 was calculated according to Prism's dose response curve fitting.
In Table 1, the levels of OCR IC50 are evaluated by the following.

A further assay has as its system SK-MEL-28 cells. Nature of the assay: Cytotoxicity in low glucose condition (MTT). The settings on record: SK-MEL-28, 0.75 mM glucose, 72 hours, read-out: SK-MEL-28 0.75 mM glucose Cell viability (IC50 ia). Format: cell-based. From the text:
The inhibition of oxidative phosphorylation (OXPHOS) is not cytotoxic to cells in normal glucose condition, because it is postulated that normal cells have compensatory mechanism under energy stress conditions such as low glucose. However OXPHOS inhibitors show cytotoxic effect on cells in the glucose deprived condition (BirsoyK, 2014). The glucose deprived condition is observed in tumor microenvironment potentially due to poor angiogenesis. Therefore the OXPHOS inhibitors may show anti-cancer effect on cancer cells in low glucose condition that may depict tumor microenvironment.
The compounds of the present invention were evaluated their cytotoxicity in SK-MEL-28, melanoma with 0.75 mM glucose supplement. The cytotoxic effect is compared with the cytotoxicity caused by phenformin. The cytotoxicity in low glucose condition is correlated with inhibition of oxygen consumption in mitochondria.
SK-MEL-28 (HTB-72) is a melanoma cell line obtained from ATCC (MA) and cultured in RPMI 1640 media (Lifetechnologies, CA) with supplement of 10% FBS and antibiotic-antimycotic (Lifetechnologies, CA). RPMI 1640 (-Glucose) was used to prepare low glucose media and 0.75 mM glucose was supplied with D-(+)-glucose solution from Sigma. SK-MEL-28 cells were separated from culture plate using 0.5% trypsin-EDTA and 5,000 cells were plated in 96-well plate with low glucose media. After incubation at 37° C. for 24 hour, 5% CO2, the cells were treated with the compounds of present invention in FBS-free media for 72 hours. The cytotoxicity was measured by the MTT (AMRESCO, OH) assay. NADH-dependent cellular oxidoreductase reduces MTT to its insoluble […] with purple color. The enzyme depends on cell number or energy state of cells. 10 μl of 5 mg/ml MIT solution was added to each well of the assay plate and skip the well for blank. The plate was incubated at 37° C. and 5% CO2 for 2 hours. The MTT solution was removed from each well and 100 μl of DMSO was added. The plate was read by VICTOR X3 Multilabel Counter at the wavelength of 550 nm. In Table 2, the levels of IC50 are evaluated by the following criteria.

For the compound `N=C(N)NC(=N)NCCc1ccccc1Cl` [Example 3, N-1-(2-chloro)phenethylbiguanide hydrochloride], the IC50 was under 2 µM with A549 cells (Homo sapiens, A549, 24 h) and 5 to 10 µM in the assay with SK-MEL-28 cells (Homo sapiens).
On to `N=C(N)NCCc1ccc(C2CC2)cc1` [Example 182, 1-(4-cyclopropylphenethyl)guanide hydrochloride], for which the IC50 with A549 cells (Homo sapiens, A549, 24 h) was 2 to 5 µM; with SK-MEL-28 cells (Homo sapiens), 5 to 10 µM.
For `N=C(N)NC(=N)NCCc1ccc(I)c(Br)c1` [Example 72, N-1-(4-iodo-3-bromo)phenethylbiguanide hydrochloride], in that order: over 5 µM and 5 to 10 µM.
In the case of `CCCNC(=N)NC(=N)NCCc1ccc(Cl)c(Cl)c1` [Example 128, N-1-propyl-N-5-(3,4-dichloro)phenethylbiguanide hydrochloride], the IC50 was over 5 µM in the assay with A549 cells (Homo sapiens, A549, 24 h) and under 5 µM with SK-MEL-28 cells (Homo sapiens).
Consider `N=C(N)NC(=N)NCc1ccc(Cl)c(Cl)c1` [Example 37, hydrochloride], for which the IC50 was over 5 µM in the assay with A549 cells (Homo sapiens, A549, 24 h) and 5 to 10 µM with SK-MEL-28 cells (Homo sapiens).
For `N=C(N)NC(=N)NCCc1ccc(Cl)c(Br)c1` [Example 76, N-1-(3-bromo-4-chloro)phenethylbiguanide hydrochloride], in that order: 2 to 5 µM and under 5 µM.
For `N=C(N)NC(=N)NCc1ccc2c(c1)CCCC2` [Example 48, N-1-2-(5,6,7,8-tetrahydronaphthalen-2-yl)methanebiguanide hydrochloride], in that order: under 2 µM and over 10 µM.
As to `CNC(=N)NC(=N)NCCc1ccc2c(c1)CCCC2` [Example 126, N-1-methyl-N-5-(2-(5,6,7,8-tetrahydronaphthalen-2-yl)ethyl) biguanide hydrochloride], the IC50 was over 5 µM with A549 cells (Homo sapiens, A549, 24 h) and under 5 µM in the assay on SK-MEL-28 cells (Homo sapiens).
In the case of `N=C(N)NC(=N)NCc1ccc(-c2ccccc2)cc1` [Example 49, N-1-(4-phenyl)benzylbiguanide hydrochloride], the IC50 in the assay with A549 cells (Homo sapiens, A549, 24 h) was over 5 µM; in the assay on SK-MEL-28 cells (Homo sapiens), over 10 µM.
For `N=C(N)NC(=N)NCCc1ccc(F)c(Cl)c1` [Example 52, N-1-(3-chloro-4-fluoro)phenethylbiguanide hydrochloride] the same measures were over 5 µM and 5 to 10 µM.
As to `N=C(N)NCCc1ccc(-c2ccccc2)cc1` [Example 195, 1-(4-phenylphenethyl)guanide hydrochloride], the IC50 with A549 cells (Homo sapiens, A549, 24 h) is 2 to 5 µM; with SK-MEL-28 cells (Homo sapiens), under 5 µM.
For `Cc1cc(CNC(=N)NC(=N)N)ccc1Br` [Example 68, N-1-(4-bromo-3-methyl)benzylbiguanide hydrochloride] the same measures were 2 to 5 µM and 5 to 10 µM.
As to `N=C(N)NCc1ccc2c(c1)CCCC2` [Example 199, 1-((5,6,7,8-tetrahydronaphthalen-2-yl)methylguanide hydrochloride], the IC50 is over 5 µM with A549 cells (Homo sapiens, A549, 24 h) and over 10 µM in the assay on SK-MEL-28 cells (Homo sapiens).
As for `Cc1ccccc1CCNC(=N)NC(=N)N` [Example 22, N-1-(2-methyl)phenethylbiguanide hydrochloride], the IC50 was under 2 µM with A549 cells (Homo sapiens, A549, 24 h) and over 10 µM with SK-MEL-28 cells (Homo sapiens).
For `N=C(N)NC(=N)NCCc1ccccc1Br` [Example 26, N-1-(2-bromo)phenethylbiguanide hydrochloride], the IC50 in the assay with A549 cells (Homo sapiens, A549, 24 h) is under 2 µM; with SK-MEL-28 cells (Homo sapiens), under 5 µM.
For `N=C(N)NC(=N)NCCc1ccc(Br)c(Br)c1` [Example 70, N-1-(3,4-dibromo)phenethylbiguanide hydrochloride], in that order: 2 to 5 µM and under 5 µM.
For `N=C(N)NC(=N)NCCc1ccc(I)cc1` [Example 71, N-1-(4-iodo)phenethylbiguanide hydrochloride] the same measures were over 5 µM and over 10 µM.
For `Cc1cc(F)ccc1CCNC(=N)NC(=N)N` [Example 17, N-1-(4-fluoro-2-methyl)phenethylbiguanide hydrochloride], the IC50 in the assay on A549 cells (Homo sapiens, A549, 24 h) is 2 to 5 µM; with SK-MEL-28 cells (Homo sapiens) it was over 10 µM.
For the compound `Cc1ccc(CCNC(=N)N)cc1C` [Example 133, 1-(3,4-dimethylphenethyl)guanide hydrochloride], the 50% inhibitory concentration (IC50) in the assay on A549 cells (Homo sapiens, A549, 24 h) was under 2 µM; in the assay with SK-MEL-28 cells (Homo sapiens) it was 5 to 10 µM.
As to `Cc1ccccc1CCNC(=N)N` [Example 161, 1-(2-methylphenethyl)guanide hydrochloride], the IC50 in the assay with A549 cells (Homo sapiens, A549, 24 h) is 2 to 5 µM; in the assay on SK-MEL-28 cells (Homo sapiens), over 10 µM.
For `COc1cc(Cl)ccc1CCNC(=N)NC(=N)N` [Example 80, N-1-(2-methoxy-4-chloro)phenethylbiguanide hydrochloride], the IC50 is under 2 µM in the assay on A549 cells (Homo sapiens, A549, 24 h) and over 10 µM in the assay on SK-MEL-28 cells (Homo sapiens).
On to `N=C(N)NC(=N)NCCc1ccc2c(c1)CCCC2` [Example 30, N-1-(2-(5,6,7,8-tetrahydronaphthalen-2-yl)ethyl)biguanide hydrochloride], for which the IC50 is over 5 µM with A549 cells (A549, 24 hrs) and under 5 µM with SK-MEL-28 cells.
Consider `N=C(N)NCCC1CCCCC1` [Example 197, 1-(2-cyclohexylethyl)guanide hydrochloride], for which the IC50 was 2 to 5 µM in the assay with A549 cells (Homo sapiens, A549, 24 h) and over 10 µM in the assay on SK-MEL-28 cells (Homo sapiens).
On to `Cc1ccc(CCNC(=N)NC(=N)N)cc1Cl` [Example 50, N-1-(3-chloro-4-methyl)phenethylbiguanide hydrochloride], for which the IC50 with A549 cells (Homo sapiens, A549, 24 h) was 2 to 5 µM; in the assay with SK-MEL-28 cells (Homo sapiens), under 5 µM.
For `N=C(N)NC(=N)NCCc1ccc2c(c1)CCC2` [Example 66, N-1-2-(2,3-dihydro-1H-inden-5-yl)ethylbiguanide hydrochloride] the same measures were 2 to 5 µM and under 5 µM.
As to `CNC(=N)NC(=N)NCCc1ccc(Cl)c(Cl)c1` [Example 122, N-1-(3,4-dichloro)phenethyl-N5-methylbiguanide hydrochloride], the concentration for half-maximal inhibition (IC50) in the assay with A549 cells (Homo sapiens, A549, 24 h) is over 5 µM; with SK-MEL-28 cells (Homo sapiens), 5 to 10 µM.
`N=C(N)NC(=N)NCCc1ccc(Cl)c(I)c1` [Example 74, N-1-(3-iodo-4-chloro)phenethylbiguanide hydrochloride]: the IC50 in the assay with A549 cells (Homo sapiens, A549, 24 h) was under 2 µM; in the assay with SK-MEL-28 cells (Homo sapiens), under 5 µM.
For `N=C(N)NCCC1CCCC1` [Example 204, 1-(2-cyclopentylethyl) guanide hydrochloride] the same measures were 2 to 5 µM and over 10 µM.
For `N=C(N)NC(=N)NCCc1ccc(I)c(Cl)c1` [Example 78, N-1-(3-chloro-4-iodo)phenethylbiguanide hydrochloride] the same measures were under 2 µM and under 5 µM.
Turning to `N=C(N)NCCc1ccc2c(c1)CCCC2` [Example 183, 1-(2-(5,6,7,8-tetrahydronaphthalen-2-yl)ethyl)guanide hydrochloride], the half-inhibitory concentration (IC50) with A549 cells (Homo sapiens, A549, 24 h) is under 2 µM; in the assay on SK-MEL-28 cells (Homo sapiens) it was under 5 µM.
Take `N=C(N)NCC1CCCCC1` [Example 205, 1-(1-cyclohexylmethyl) guanide hydrochloride]: the IC50 with A549 cells (Homo sapiens, A549, 24 h) is 2 to 5 µM; with SK-MEL-28 cells (Homo sapiens), over 10 µM.
Take `COc1cc(Br)ccc1CCNC(=N)NC(=N)N` [Example 81, N1-(2-methoxy-4-bromo)phenethylbiguanide hydrochloride]: the half-inhibitory concentration (IC50) was under 2 µM in the assay on A549 cells (Homo sapiens, A549, 24 h) and 5 to 10 µM in the assay with SK-MEL-28 cells (Homo sapiens).

Usually IC50 stands for the concentration that inhibits the measured activity by half.
